Key:
Aβ40 [1] = test: Triton TX-100 soluble Aβ40 in APP23 mouse brain; type: in vivo; details: APP23 mice
Experimental: Frozen mouse forebrains were weighed and homogenized in 9 volumes (w/v) of ice-cold TBS-Complete (20 mM Tris-HCl pH 7.4, 137 mM NaCl, 1× Complete [Protease Inhibitor Cocktail Tablets: 1 836 145, Roche Diagnostics GmbH, Penzberg, Germany]) by sonication (90% duty cycle, output control 5, 40-55 pulses, [Sonifier 450, Branson]). After homogenization several 50 μl aliquots were prepared for analysis and were stored at −80° C.
Human Aβ40 and 42 in mice was determined with the Meso Scale Discovery (MSD) 96-well MULTI-ARRAY human/rodent (6E10) Aβ40/42 Assay (Meso Scale Discovery, Rockville, Md., USA). The assay was performed according to the manufacturer's instructions except for the calibration curve and the sample preparations. TritonX-100 (TX-100) soluble Aβ40 and 42 was extracted from forebrain with 1% TX-100 using a 50 μl aliquot of each 1:10 forebrain homogenate, mixed with 50 μl 2% TX-100 in TBS complete (20 mM Tris-HCl pH 7.4, 137 mM NaCl, 1× Complete [Protease Inhibitor Cocktail Tablets: 1 836 145, Roche Diagnostics GmbH, Penzberg Germany]) to reach a final concentration of 1% TX-100 and a 1:20 forebrain dilution. The samples were incubated for 15 min on ice and vortexed every 5 min. The samples were ultra-centrifuged (100000×g, 4° C., 15 min) and 50 μl of the clear supernatants were transferred to fresh tubes. The supernatants were further diluted 1:5 in 3% Blocker A solution (from kit) to a final forebrain dilution of 1:100 and applied to the plate.
The calibration curve was prepared in a corresponding dilution of 1% Blocker A solution spiked with synthetic Aβ1-40 peptide (1.56-100 pg/ml) except for non-transgenic mouse brain samples: In this case, the calibration curve was prepared in a correspondingly diluted APP knockout mouse forebrain spiked with synthetic Aβ1-40 peptide (1.56-100 pg/ml). For all samples and standards 25 μl were applied per well. For each determination duplicate wells were done. The mean values from the duplicate wells were used for calculations. The relative units for samples and standards were imported into SOFTmax PRO 4.0 for calculation of standard curves and quantification of samples.
Brain homogenates were extracted with 1% Triton X-100 in buffer and the resulting supernatant was considered to represent soluble forms of APP metabolites. In addition to Aβ40 and 42, we determined the N-terminal APP fragments sAPPα (direct cleavage product of α-secretase) and sAPPβ (Swe) (direct product of BACE1 cleavage). […] Since no change in the APP expression and Aβ generation is known to happen during this age, it is assumed that the increased values in the vehicle group (18-20 mo old) arise from “leakage” out of the Aβ deposits (which increase several fold, see below).

[2] = 3-month dose-ranging study: safety and tolerability; type: in vivo, human; details: healthy elderly subjects, once-daily 2, 10, 35 and 85 mg over three months
Text: (§1) This study is listed in ClinicalTrials.gov under the NCT02576639 Identifier code.
(§2) The primary purpose of this study was to expand on previous safety and tolerability data obtained over 2-week and 4-week duration in the first in human study and thereby allow initiation of future long-term efficacy trials in subjects at risk of AD. In addition, data relevant for Pharmacokinetic/Pharmacodynamic modeling was obtained in order to support dose selection decisions for future efficacy studies.

[3] = First-in-human study: safety and tolerability; type: in vivo; details: healthy elderly subjects
Text: The purpose of this study was to determine the single and multiple maximum tolerated dose of Compound 1 and to assess the pharmacokinetic/pharmacodynamic (PK/PD) relationship using Aβ in CSF as primary PD biomarker.

Aβ40 [4] = test: Acute PK/PD in APOE4-TR mice: Aβ40 in CSF; type: in vivo, mouse; details: for Average Aβ40 CSF ± SD: n = 6
Experimental: Compound 1 was formulated as a suspension. Vehicle or compound was given by oral administration in a volume of 10 ml/kg once. Vehicle: 0.1% Tween80 in 0.5% Methylcellulose in water.
Analysis of Aβ40 in Mouse Brain and Aβ40 and Aβ42 in CSF

Aβ40 [5] = test: 3-month dose-ranging study: Aβ40 in CSF; type: in vivo, human; details: for Aβ40 % change from baseline, Mean (SD) / Aβ40 % change from baseline, Median: CSF, 3 months
Text: as §1, §2
In the completed first-in-human and 3-month dose-ranging safety and tolerability clinical studies described in Examples 5 and 6, Aβ concentrations in CSF were obtained by means of lumbar punctures before the first dose (baseline) and respectively after 2 weeks and 3 months of multiple dosing. ApoE4 genotype also was obtained in the subjects who consented. The percent change from baseline in Aβ40 and Aβ42 concentrations was calculated in subjects who took the study treatment and had no major protocol deviation with potential impact on the evaluation of the pharmacodynamic effect. Tables 18 to 21 below provide summary statistics of the percent change from baseline by treatment group and ApoE genotype (E4 heterozygotes versus E4 non-carriers). Only one subject with CSF data was E4 homozygote (from the 3-month dose-ranging safety and tolerability study).

C[C@@]1(c2nc(NC(=O)c3ncc(C(F)(F)F)cc3Cl)ccc2F)CO[C@@](C)(C(F)(F)F)C(N)=N1 [Compound 1, N-(6-((3R,6R)-5-amino-3,6-dimethyl-6-(trifluoromethyl)-3,6-dihydro-2H-1,4-oxazin-3-yl)-5-fluoropyridin-2-yl)-3-chloro-5-(trifluoromethyl)picolinamide]
Aβ40 change vs vehicle (Triton TX-100 soluble, brain) (Aβ40 [1]; 0.03 g/kg vs vehicle): −4.6%
Aβ40 change vs vehicle (Triton TX-100 soluble, brain) (Aβ40 [1]; 0.3 g/kg vs vehicle): −43.7%
treatment effects on soluble Aβ species (brain tissue and CSF Aβ40) (Aβ40 [1]; high dose): −43.7 to −77%
treatment effects on soluble Aβ species (brain tissue and CSF Aβ40) (Aβ40 [1]; low dose): −4.6 to −20%
safety and tolerability [2]: safe and tolerated
safety and tolerability ([3]; 300 mg QD over two weeks (highest tested)): safe and tolerated
safety and tolerability ([3]; 750 mg single dose (highest tested)): safe and tolerated
Mini AUEC (CSF Aβ40) (Aβ40 [4]; 3 μmol/kg acute): 26%
Average Aβ40 CSF ± SD (Aβ40 [4]; 3 μmol/kg acute p.o., 4 h): 0.1308 ± 0.06381 pmol/mL
Average Aβ40 CSF ± SD (Aβ40 [4]; 3 μmol/kg acute p.o., 24 h): 0.1402 ± 0.07911 pmol/mL
% reduction vs vehicle (CSF Aβ40) (Aβ40 [4]; 3 μmol/kg acute, 4 h): 28%
% reduction vs vehicle (CSF Aβ40) (Aβ40 [4]; 3 μmol/kg acute, 24 h): 23%
Mini AUEC (CSF Aβ40) (Aβ40 [4]; 10 μmol/kg acute): 37%
Average Aβ40 CSF ± SD (Aβ40 [4]; 10 μmol/kg acute p.o., 4 h): 0.07527 ± 0.03356 pmol/mL
Average Aβ40 CSF ± SD (Aβ40 [4]; 10 μmol/kg acute p.o., 24 h): 0.1565 ± 0.08348 pmol/mL
% reduction vs vehicle (CSF Aβ40) (Aβ40 [4]; 10 μmol/kg acute, 4 h): 59%
% reduction vs vehicle (CSF Aβ40) (Aβ40 [4]; 10 μmol/kg acute, 24 h): 14%
Mini AUEC (CSF Aβ40) (Aβ40 [4]; 30 μmol/kg acute): 77%
Average Aβ40 CSF ± SD (Aβ40 [4]; 30 μmol/kg acute p.o., 4 h): 0.02533 ± 0.01093 pmol/mL
Average Aβ40 CSF ± SD (Aβ40 [4]; 30 μmol/kg acute p.o., 24 h): 0.06083 ± 0.03445 pmol/mL
% reduction vs vehicle (CSF Aβ40) (Aβ40 [4]; 30 μmol/kg acute, 4 h): 86%
% reduction vs vehicle (CSF Aβ40) (Aβ40 [4]; 30 μmol/kg acute, 24 h): 67%
Aβ40 % change from baseline, Mean (SD) (Aβ40 [5]; 2 mg, E4 heterozygotes): −21 (11) %
Aβ40 % change from baseline, Median (Aβ40 [5]; 2 mg, E4 heterozygotes): −18%
Aβ40 % change from baseline, Mean (SD) (Aβ40 [5]; 2 mg, E4 non-carriers): −24 (9) %
Aβ40 % change from baseline, Median (Aβ40 [5]; 2 mg, E4 non-carriers): −22%
Aβ40 % change from baseline, Mean (SD) (Aβ40 [5]; 10 mg, E4 heterozygotes): −67 (7) %
Aβ40 % change from baseline, Median (Aβ40 [5]; 10 mg, E4 heterozygotes): −64%
Aβ40 % change from baseline, Mean (SD) (Aβ40 [5]; 10 mg, E4 non-carriers): −64 (6) %
Aβ40 % change from baseline, Median (Aβ40 [5]; 10 mg, E4 non-carriers): −65%
Aβ40 % change from baseline, Mean (SD) (Aβ40 [5]; 35 mg, E4 heterozygotes): −84 (3) %
Aβ40 % change from baseline, Median (Aβ40 [5]; 35 mg, E4 heterozygotes): −85%
Aβ40 % change from baseline, Mean (SD) (Aβ40 [5]; 35 mg, E4 non-carriers): −82 (5) %
Aβ40 % change from baseline, Median (Aβ40 [5]; 35 mg, E4 non-carriers): −83%
Aβ40 % change from baseline, Mean (SD) (Aβ40 [5]; 85 mg, E4 heterozygotes): −91 (0) %
Aβ40 % change from baseline, Median (Aβ40 [5]; 85 mg, E4 heterozygotes): −91%
Aβ40 % change from baseline, Mean (SD) (Aβ40 [5]; 85 mg, E4 non-carriers): −91 (2) %
Aβ40 % change from baseline, Median (Aβ40 [5]; 85 mg, E4 non-carriers): −90%
difference in CSF Aβ40 and Aβ42 response between ApoE4 carriers and non-carriers (Aβ40 [5]; first-in-human (2 weeks) and 3-month studies): no difference in CSF Aβ40 and Aβ42 response to treatment
PD steady-state (Aβ lowering) reached after (Aβ40 [5]; healthy elderly subjects, once-daily dosing): 2-3 weeks
Aβ40 in CSF percent change from baseline, Difference (90% CI) Cmpd 1-Placebo (Aβ40 [5]; month 3, 2 mg QD): −19.87 (−23.09, −16.65) %
Aβ40 in CSF percent change from baseline, LSmean (SE) (Aβ40 [5]; month 3, 2 mg QD): −22.66 (1.355) %
Aβ40 in CSF percent change from baseline, Difference (90% CI) Cmpd 1-Placebo (Aβ40 [5]; month 3, 10 mg QD): −60.18 (−63.43, −56.92) %
Aβ40 in CSF percent change from baseline, LSmean (SE) (Aβ40 [5]; month 3, 10 mg QD): −62.96 (1.388) %
Aβ40 in CSF percent change from baseline, Difference (90% CI) Cmpd 1-Placebo (Aβ40 [5]; month 3, 35 mg QD): −80.41 (−83.59, −77.22) %
Aβ40 in CSF percent change from baseline, LSmean (SE) (Aβ40 [5]; month 3, 35 mg QD): −83.19 (1.325) %
Aβ40 in CSF percent change from baseline, Difference (90% CI) Cmpd 1-Placebo (Aβ40 [5]; month 3, 85 mg QD): −87.62 (−90.93, −84.30) %
Aβ40 in CSF percent change from baseline, LSmean (SE) (Aβ40 [5]; month 3, 85 mg QD): −90.40 (1.429) %

Source: US20200345746A1, “Oxazine Derivative for Use in the Prevention of Alzheimer's Disease in at Risk Patents” (Novartis AG, priority 2016, published 2020)
